# What was measured:
# [1] = system: Candida albicans ATCC 10231; assay: Antifungal activity analysis (growth inhibition in microtiter plates); format: cell-based; conditions: Table 5
# Experimental: The test organism used for the polyene macrolide bioactivity assays was Candida albicans ATCC 10231, which was grown in 120 μl of YM medium without NaCl (with an inoculum of 1,000 CFU per well) and 30 μl of diluted polyene macrolide samples. The antibiotics were diluted in methanol in series to ensure that concentrations resulting in no inhibition to complete inhibition of the growth of the test organism were used. The test organism cultures with diluted antibiotics were then incubated in 96-well microtiter plates at 30° C. without shaking. After 12, 14, and 16 h, growth was measured based on the optical density at 492 nm using a TECAN Infinite F50 microtiter plate reader. The optical density was plotted against the antibiotic concentration, and the MIC at which 50% of isolates are inhibited (MIC50) was estimated from the regression curve at 50% growth inhibition.
# [2] = system: erythrocytes in defibrinated horse blood; assay: In vitro measurement of hemolytic activity; format: cell-based; conditions: 37° C., 30 min
# Experimental: The hemolytic assay for the polyene macrolides was performed by monitoring the ability of the macrolides to cause lysis of erythrocytes in defibrinated horse blood (Gene. 111:61-68, 1992). Samples (0.1 ml) with different polyene macrolide concentrations (10 to 500 μg/ml in DMSO) were prepared from stock solutions of the purified polyenes (5 mg/ml in DMSO). The diluted samples were mixed with 0.9 ml horse blood-phosphate-buffered saline (PBS), which consisted of PBS buffer containing 2.5% defibrinated horse blood (KisanBiotech, Korea), and incubated in a water bath at 37° C. Samples were collected at 30 min, centrifuged at 5,000 rpm for 5 min, and the OD540 was measured. One hundred percent hemolysis was defined as the OD540 value obtained from a suspension of 2.5% horse blood in distilled water, and 0.9 ml horse blood-PBS with the addition of 0.1 ml DMSO was used as a blank. Each experiment was performed in triplicate, and samples containing nystatin were used as standards.
# [3] = Solubility measurement in aqueous Tris-HCl buffer by UV spectrophotometry; format: physicochemical; conditions: aqueous 10 mmol Tris-HCl buffer (pH 7.0)
# Description: The polyene region of nystatin is extremely non-polar, which is presumed to promote hydrophobic interactions with sterols within the fungal cell membrane, and orients the polyol component of the molecule toward the internal aqueous channel. However, this low polarity also leads to significant difficulties in administration during human therapy. To investigate the effect of the additional N-acetyl-glucosamine moiety, the present inventors tested the solubility of the purified NPP as well as the nystatin A1 as a reference in an aqueous buffer solution of 10 mmol Tris-HCl (pH 7.0) using spectrophotometric methods.
# Particularly, stock solutions of nystatin A1 (Sigma, N6261) standard (1.2 mg/ml) and the purified NPP (12 mg/ml) were prepared in methanol. A 100 μl portion of each stock was freeze-dried under vacuum for 24 h. Either 50 μl (nystatin A1) or 2 μl (NPP) of aqueous 10 mmol Tris-HCl buffer (pH 7.0) was added to the dry polyenes, and the solution was saturated by extensive (>15 min) vortexing. After centrifugation, polyene concentrations in the solution were determined by measuring UV absorbance spectra on SHIMADZU UV-1601 UV/Vis spectrophotometer after appropriate dilution. Specifically, the characteristic tetraene UV peak at 306 nm was used for quantification with experimentally determined extinction coefficients (J. Med. Chem. 49:2431-2439, 2006).
smiles,measurement,setting,value
"C[C@@H]1[C@H](O)[C@@H](C)/C=C/C=C/CC/C=C/C=C/C=C/C=C/C(O[C@H]2O[C@H](C)[C@@H](O)[C@H](N)[C@@H]2O)CC2O[C@](O)(CC(O)C(O)CCC(O)CC(O)CC(O)CC(=O)O[C@H]1C)CC(O)C2C(=O)O (some centres unmarked) [nystatin, nystatin A1]","Antifungal activity (IC50, μg/ml)",[1],0.43 ± 0.02 µg/mL
same,HC50,[2]; 2.5% defibrinated horse blood in PBS,33 µg/mL
same,"Hemolytic activity (HC50, μg/ml)","[2]; Table 5, horse blood",33 ± 0.54 µg/mL
same,solubility,[3]; Table 5,110 ± 30 µg/mL
same,solubility,[3],110 µg/mL

# — patent publication US9605015B2, “Polyene compound, method for preparing the same, and antifungal drug comprising novel polyene compound as active ingredient” (INHA-INDUSTRY PARTNERSHIP INSTITUTE, priority 2011, dated 2017)
